Measurements taken from patent USRE48335E1, “Polymyxin derivatives as antimicrobial compounds” (priority 2014, dated 2020).
Converted amounts (≈) assume the structure as drawn. Positions of bridges follow the written chain, without caps; N, C: chain ends. Non-standard residues stand in square brackets, D forms with d. Residues, ends and D or L forms follow the SMILES beside them. *: point of attachment. Benzoyl(3-CF3) = O=C(c1cccc(C(F)(F)F)c1)*; Benzoyl(4-Cl) = O=C(c1ccc(Cl)cc1)*; X12 = O=C(c1ccc(C(F)(F)F)c(F)c1)*; X9 = Cc1ccc(C(=O)*)cc1C(F)(F)F; dNle = CCCC[C@@H](N)C(=O)O; Octanoyl = CCCCCCCC(=O)*; Dab = NCC[C@H](N)C(=O)O; Abu = CC[C@H](N)C(=O)O; Dap = NC[C@H](N)C(=O)O

How the values were obtained:
P. aeruginosa ATCC 27853 = test: In vivo efficacy in mouse blood infection model (neutropenic Swiss mice); details: compound, free base 4 mg/kg intravenously 2 h after inoculation, blood at 4 h
How it was run: (§1)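 Neutropenic Swiss mice (cyclophosphamide 150 mg/kg day −4, 100 mg/kg day −1, i.p.) infected i.v. with early log-phase bacteria; 4 mg/kg free base i.v. given 2 h post-inoculation. Blood CFU by cardiac puncture 4 h post-dose; Δlog10 CFU/mL treated versus saline controls.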

[1] = tested on: K. pneumoniae FADDI-KP032; test: as above; details: compound, free base 4 mg/kg intravenously 2 h after inoculation, blood at 4 h
How it was run: as §1

Enterobacter cloacae = tested on: Enterobacter cloacae
How it was run: (§2)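 Broth microdilution MICs following CLSI standards in cation-adjusted Mueller-Hinton broth. Lipopeptides tested as TFA salts; polymyxin B sulphate served as control.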

Klebsiella pneumoniae = tested on: Klebsiella pneumoniae
How it was run: as §2

Acinetobacter baumannii = tested on: Acinetobacter baumannii
How it was run: as §2

Pseudomonas aeruginosa = tested on: Pseudomonas aeruginosa
How it was run: as §2

A. baumannii ATCC 19606 = test: In vivo efficacy in mouse blood infection model (neutropenic Swiss mice); details: compound, free base 4 mg/kg intravenously 2 h after inoculation, blood at 4 h
How it was run: as §1

| Compound | Δ log (Treated-Control at 4 h) (P. aeruginosa ATCC 27853) [log10 CFU/mL] | Δ log (Treated-Control at 4 h) [1] [log10 CFU/mL] | Minimum inhibitory concentration, Ec FADDI-EC001 (Enterobacter cloacae) [µg/mL] | Minimum inhibitory concentration, Ec FADDI-EC003 (Enterobacter cloacae) [µg/mL] | Minimum inhibitory concentration, Ec FADDI-EC006 (Enterobacter cloacae) [µg/mL] | MIC (Klebsiella pneumoniae) [µg/mL] | MIC (Acinetobacter baumannii) [µg/mL] | Minimum inhibitory concentration, Ab A ATCC 17978 (Acinetobacter baumannii) [µg/mL] | Minimum inhibitory concentration, Ab ATCC 19606 (Acinetobacter baumannii) [µg/mL] | Minimum inhibitory concentration, Ab FADDI-AB034 (Acinetobacter baumannii) [µg/mL] | MIC (Pseudomonas aeruginosa) [µg/mL] | Minimum inhibitory concentration, Pa ATCC 27853 (Pseudomonas aeruginosa) [µg/mL] | Minimum inhibitory concentration, Pa FADDI-PA022 (Pseudomonas aeruginosa) [µg/mL] | Minimum inhibitory concentration, Pa FADDI-PA025 (Pseudomonas aeruginosa) [µg/mL] | Δ log (Treated-Control at 4 h) (A. baumannii ATCC 19606) [log10 CFU/mL] |
| --- | --- | --- | --- | --- | --- | --- | --- | --- | --- | --- | --- | --- | --- | --- | --- |
| CC[C@@H]1NC(=O)[C@@H](CC(C)C)NC(=O)[C@H](CCN)NC(=O)[C@@H](NC(=O)[C@H](CN)NC(=O)[C@@H](NC(=O)[C@H](CCN)NC(=O)c2cccc(C(F)(F)F)c2)[C@@H](C)O)CCNC(=O)[C@H]([C@@H](C)O)NC(=O)[C@H](CCN)NC(=O)[C@H](CCN)NC1=O [Compound 106] ({Benzoyl(3-CF3)}-[Dab]T[Dap][Dab][Dab][dL][Abu][Dab][Dab]T; lactam 4-C) | −2.33 | −2.77 | 0.25 (≈ 0.216 µM) | 0.5 (≈ 0.431 µM) | 0.25 (≈ 0.216 µM) | 0.25 (≈ 0.216 µM) | 0.5 (≈ 0.431 µM) | 0.5 (≈ 0.431 µM) | 0.5 (≈ 0.431 µM) | 0.25 (≈ 0.216 µM) | 0.5 (≈ 0.431 µM) | 0.5 (≈ 0.431 µM) | 0.5 (≈ 0.431 µM) | 2 (≈ 1.73 µM) | – |
| CCCCCCCC(=O)N[C@@H](CCN)C(=O)N[C@H](C(=O)N[C@@H](CO)C(=O)N[C@H]1CCNC(=O)[C@H]([C@@H](C)O)NC(=O)[C@H](CCN)NC(=O)[C@H](CCN)NC(=O)[C@H]([C@@H](C)O)NC(=O)[C@@H](CC(C)C)NC(=O)[C@H](CCN)NC1=O)[C@@H](C)O [Compound 4] (Octanoyl-[Dab]TS[Dab][Dab][dL]T[Dab][Dab]T; lactam 4-C) | – | −1.84 | 0.5 (≈ 0.442 µM) | 0.25 (≈ 0.221 µM) | 1 (≈ 0.885 µM) | 1 (≈ 0.885 µM) | 8 (≈ 7.08 µM) | 8 (≈ 7.08 µM) | 8 (≈ 7.08 µM) | 4 (≈ 3.54 µM) | 4 (≈ 3.54 µM) | 4 (≈ 3.54 µM) | 8 (≈ 7.08 µM) | >32 | – |
| C[C@@H]1NC(=O)[C@@H](Cc2ccccc2)NC(=O)[C@H](CCN)NC(=O)[C@@H](NC(=O)[C@H](CN)NC(=O)[C@@H](NC(=O)[C@H](CCN)NC(=O)c2cccc(C(F)(F)F)c2)[C@@H](C)O)CCNC(=O)[C@H]([C@@H](C)O)NC(=O)[C@H](CCN)NC(=O)[C@H](CCN)NC1=O [Compound 126] ({Benzoyl(3-CF3)}-[Dab]T[Dap][Dab][Dab][dF]A[Dab][Dab]T; lactam 4-C) | −3.97 | −2.68 | 0.5 (≈ 0.424 µM) | 0.5 (≈ 0.424 µM) | 0.5 (≈ 0.424 µM) | 0.5 (≈ 0.424 µM) | 1 (≈ 0.848 µM) | 1 (≈ 0.848 µM) | 1 (≈ 0.848 µM) | 1 (≈ 0.848 µM) | 0.25 (≈ 0.212 µM) | 0.25 (≈ 0.212 µM) | 1 (≈ 0.848 µM) | 2 (≈ 1.7 µM) | – |
| CC[C@@H]1NC(=O)[C@@H](CC(C)C)NC(=O)[C@H](CCN)NC(=O)[C@@H](NC(=O)[C@H](CN)NC(=O)[C@@H](NC(=O)[C@H](CCN)NC(=O)c2ccc(Cl)cc2)[C@@H](C)O)CCNC(=O)[C@H]([C@@H](C)O)NC(=O)[C@H](CCN)NC(=O)[C@H](CCN)NC1=O [Compound 94] ({Benzoyl(4-Cl)}-[Dab]T[Dap][Dab][Dab][dL][Abu][Dab][Dab]T; lactam 4-C) | −3.23 | – | 0.25 (≈ 0.222 µM) | 0.25 (≈ 0.222 µM) | 0.5 (≈ 0.444 µM) | 0.25 (≈ 0.222 µM) | 1 (≈ 0.888 µM) | 0.5 (≈ 0.444 µM) | 1 (≈ 0.888 µM) | 0.25 (≈ 0.222 µM) | 0.5 (≈ 0.444 µM) | 0.5 (≈ 0.444 µM) | 0.5 (≈ 0.444 µM) | 2 (≈ 1.78 µM) | −1.26 |
| CCCC[C@H]1NC(=O)[C@H](CCN)NC(=O)[C@@H](NC(=O)[C@H](CN)NC(=O)[C@@H](NC(=O)[C@H](CCN)NC(=O)c2cccc(C(F)(F)F)c2)[C@@H](C)O)CCNC(=O)[C@H]([C@@H](C)O)NC(=O)[C@H](CCN)NC(=O)[C@H](CCN)NC(=O)[C@H]([C@@H](C)O)NC1=O [Compound 123] ({Benzoyl(3-CF3)}-[Dab]T[Dap][Dab][Dab][dNle]T[Dab][Dab]T; lactam 4-C) | −2.96 | – | 0.5 (≈ 0.425 µM) | 0.5 (≈ 0.425 µM) | 1 (≈ 0.851 µM) | 0.5 (≈ 0.425 µM) | 1 (≈ 0.851 µM) | 1 (≈ 0.851 µM) | 1 (≈ 0.851 µM) | 0.5 (≈ 0.425 µM) | 0.5 (≈ 0.425 µM) | 0.5 (≈ 0.425 µM) | 0.5 (≈ 0.425 µM) | 2 (≈ 1.7 µM) | −1.53 |
| CC[C@@H]1NC(=O)[C@@H](Cc2ccccc2)NC(=O)[C@H](CCN)NC(=O)[C@@H](NC(=O)[C@H](CN)NC(=O)[C@@H](NC(=O)[C@H](CCN)NC(=O)c2cccc(C(F)(F)F)c2)[C@@H](C)O)CCNC(=O)[C@H]([C@@H](C)O)NC(=O)[C@H](CCN)NC(=O)[C@H](CCN)NC1=O [Compound 122] ({Benzoyl(3-CF3)}-[Dab]T[Dap][Dab][Dab][dF][Abu][Dab][Dab]T; lactam 4-C) | −3.70 | – | 0.5 (≈ 0.419 µM) | 0.5 (≈ 0.419 µM) | 0.25 (≈ 0.21 µM) | 0.5 (≈ 0.419 µM) | 0.5 (≈ 0.419 µM) | 0.25 (≈ 0.21 µM) | 0.5 (≈ 0.419 µM) | 0.5 (≈ 0.419 µM) | 2 (≈ 1.68 µM) | 2 (≈ 1.68 µM) | 2 (≈ 1.68 µM) | 2 (≈ 1.68 µM) | −1.58 |
| CC[C@@H]1NC(=O)[C@@H](CC(C)C)NC(=O)[C@H](CCN)NC(=O)[C@@H](NC(=O)[C@H](CN)NC(=O)[C@@H](NC(=O)[C@H](CCN)NC(=O)c2ccc(C)c(C(F)(F)F)c2)[C@@H](C)O)CCNC(=O)[C@H]([C@@H](C)O)NC(=O)[C@H](CCN)NC(=O)[C@H](CCN)NC1=O [Compound 113] (X9-[Dab]T[Dap][Dab][Dab][dL][Abu][Dab][Dab]T; lactam 4-C) | −2.61 | – | 1 (≈ 0.852 µM) | 0.25 (≈ 0.213 µM) | 1 (≈ 0.852 µM) | 0.25 (≈ 0.213 µM) | 0.5 (≈ 0.426 µM) | 0.25 (≈ 0.213 µM) | 0.5 (≈ 0.426 µM) | 0.25 (≈ 0.213 µM) | 0.5 (≈ 0.426 µM) | 1 (≈ 0.852 µM) | 0.5 (≈ 0.426 µM) | 2 (≈ 1.7 µM) | −1.60 |
| CC[C@@H]1NC(=O)[C@@H](CC(C)C)NC(=O)[C@H](CCN)NC(=O)[C@@H](NC(=O)[C@H](CN)NC(=O)[C@@H](NC(=O)[C@H](CCN)NC(=O)c2ccc(C(F)(F)F)c(F)c2)[C@@H](C)O)CCNC(=O)[C@H]([C@@H](C)O)NC(=O)[C@H](CCN)NC(=O)[C@H](CCN)NC1=O [Compound 111] (X12-[Dab]T[Dap][Dab][Dab][dL][Abu][Dab][Dab]T; lactam 4-C) | −3.65 | – | 0.5 (≈ 0.425 µM) | 0.25 (≈ 0.212 µM) | 0.25 (≈ 0.212 µM) | 0.25 (≈ 0.212 µM) | 0.5 (≈ 0.425 µM) | 0.5 (≈ 0.425 µM) | 0.5 (≈ 0.425 µM) | 0.25 (≈ 0.212 µM) | 1 (≈ 0.849 µM) | 0.5 (≈ 0.425 µM) | 1 (≈ 0.849 µM) | 1 (≈ 0.849 µM) | −1.66 |
| CCCCCCCC(=O)N[C@@H](CCN)C(=O)N[C@H](C(=O)N[C@@H](CCN)C(=O)N[C@H]1CCNC(=O)[C@H]([C@@H](C)O)NC(=O)[C@H](CCN)NC(=O)[C@H](CCN)NC(=O)[C@H](C)NC(=O)[C@@H](CC(C)C)NC(=O)[C@H](CCN)NC1=O)[C@@H](C)O [Compound 21] (Octanoyl-[Dab]T[Dab][Dab][Dab][dL]A[Dab][Dab]T; lactam 4-C) | −2.26 | – | 0.125 (≈ 0.112 µM) | 0.125 (≈ 0.112 µM) | 0.125 (≈ 0.112 µM) | 0.25 (≈ 0.225 µM) | 1 (≈ 0.898 µM) | 2 (≈ 1.8 µM) | 1 (≈ 0.898 µM) | 0.5 (≈ 0.449 µM) | 0.5 (≈ 0.449 µM) | 0.5 (≈ 0.449 µM) | 0.5 (≈ 0.449 µM) | >32 | −2.43 |
